Experimental data as given in patent US20140088114A1, “FUSED BICYCLIC KINASE INHIBITORS” (OSI Pharmaceuticals ,LLC, priority 2011, published 2014).

Test system: Karpas-299 cells
Test: Karpas-299 cell proliferation assay (CellTiter-Glo)
Format: cell-based
Conditions: Homo sapiens, 72 h; Karpas-299 cell line (NPM-ALK), 3 days incubation, at least duplicate experiments; read-out: Prolif. IC50
Experimental: The effect of inhibitors on the proliferation of Karpas-299 cells (DSMZ no. ACC 31) was determined using the following protocol. Karpas-299 cells were plated in 96-well white tissue culture treated plates (Corning 3917) in growth medium (RPMI, 10% FCS) at a density of 5000 cells/well in a total volume of 135 μL and incubated at 37° C., 5% CO2, 95% humidity overnight. The following day, one-tenth volume of a 10× concentration of compounds was added to the wells in an 8-point dilution series. Compounds were serially diluted (1:4) in DMSO from a 10 mM stock solution prior to dilution in growth media to the 10× working concentrations (5% DMSO). Final concentration of DMSO in compound-treated wells was 0.5%. Control wells containing growth media or growth media/0.5% DMSO were included in all test plates. The typical dilution range is 10 μM to 0.1 nM. Once the compounds were added to the cells, plates were incubated for 3 days at 37° C., 5% CO2 at 95% humidity. After 72 hours, all cells and reagents were equilibrated to room temperature and 15 μL of CellTiter-Glo reagent (Promega #G7573) was added to each well. Plates were shaken on a platform for 10 minutes at room temperature prior to reading luminescence. The value of the signal of the control wells was set as 100% growth and growth inhibition was expressed as percent of control. IC50 values were determined from the percent of control data using a standard four-parameter curve fit equation.
The IC50 values of exemplary compounds of the present invention determined in a cell proliferation assay using the Karpas-299 cell line according to the procedures described herein in at least duplicate experiments are abbreviated as follows and are shown in Table 5: A, IC50≦0.03 μM; B, 0.03 μM<IC50≦0.1 μM; C, 0.1 μM<IC50≦1 μM; D, 1 μM<IC50≦3 μM; ND, not determined. The Example # of Table 5 corresponds to the compound example number as illustrated in the Examples section.
The Karpas-299 cell line has a t(2;5) chromosomal translocation and expresses the NPM-ALK fusion protein, resulting in constitutively active ALK. […] Ther. 6(12):3314-22 (2007)]. With this “ALK-driven” cell line by ALK, the cell proliferation IC50 values can thus be used as surrogate for the p-ALK cell mechanistic IC50 values.

| Structure (SMILES) | IC50 [nM] |
| --- | --- |
| Cn1cc(-c2cnc3[nH]cc(C(CF)c4c(Cl)ccc(F)c4Cl)c3c2)cn1 (stereo not shown) [Example 1, 3-[1-(2,6-Dichloro-3-fluorophenyl)-2-fluoroethyl]-5-(1-methyl-1H-pyrazol-4-yl)-1H-pyrrolo[2,3-b]pyridine] | 100 to 1000 |
| O[C@H]1CC[C@H](n2cc(-c3cnc4[nH]cc([C@H](CF)c5c(OC(F)F)ccc(F)c5Cl)c4c3)cn2)CC1 [Example 5, trans-4-[4-(3-{(1S)-1-[2-Chloro-6-(difluoromethoxy)-3-fluorophenyl]-2-fluoroethyl}-1H-pyrrolo[2,3-b]pyridin-5-yl)-1H-pyrazol-1-yl]cyclohexanol] | ≤ 30 |
| O[C@H]1CC[C@H](n2cc(-c3cnc4[nH]cc([C@@H](CF)c5c(OC(F)F)ccc(F)c5Cl)c4c3)cn2)CC1 [Example 4, trans-4-[4-(3-{(1R)-1-[2-Chloro-6-(difluoromethoxy)-3-fluorophenyl]-2-fluoroethyl}-1H-pyrrolo[2,3-b]pyridin-5-yl)-1H-pyrazol-1-yl]cyclohexanol] | 100 to 1000 |
| COc1ccc(F)c(Cl)c1[C@@H](CF)c1c[nH]c2ncc(-c3cnn([C@H]4CC[C@H](O)CC4)c3)cc12 [Example 3, trans-4-(4-{3-[(1S)-1-(2-chloro-3-fluoro-6-methoxyphenyl)-2-fluoroethyl]-1H-pyrrolo[2,3-b]pyridin-5-yl}-1H-pyrazol-1-yl)cyclohexanol] | 30 to 100 |
